Experimental data as given in article PMC4772728 (Drug development and industrial pharmacy, 2013).
In brackets after ≈: the same amount, converted by molar mass. Several values for one entry are separate records, joined by “and”; a condition that tells them apart may be missing. Identical values can stand only once. Marks after values point to notes of the source that are not given here.

What was measured:
Solubility determination = assay type: physicochemical; settings: for solubility: thermodynamic from solid
[1] = Octanol/water partition coefficient determination; assay type: physicochemical
[2] = Stratum corneum/water partition coefficient determination; assay type: physicochemical, human
[3] = cited from earlier work
[4] = pH 7.4
[5] = PBS pH 7.4 with 30% DMSO, 37 °C, pseudo first order
[6] = fresh rat plasma, 37 °C
[7] = stratum corneum / 5% propylene glycol in water, 24 hrs

Compound	solubility (Solubility determination; organic solvent or mixture, Solubility in IPM) [µM]	solubility (Solubility determination; pH 2.5, aqueous buffer, Solubility in water) [µM]	logP at 24 h ([1]; octanol/0.02 M phosphate buffer pH 2.5, pH 2.5)	Partition coefficient (LogK SC/ 5% PG water) ([2]; water substituted with 0.02 M phosphate buffer at pH 2.5, 24 hrs)	octanol/water partition coefficient ([3]; ref Drug Bank website)	Solubility in 5% PG water (Solubility determination) [µM]	Solubility in Hexane (Solubility determination) [µM]	Solubility in IPM (Solubility determination) [µM]	Solubility in water (Solubility determination) [µM]	Increase of solubility in purified water relative to unionized DA (Solubility determination; pH 2.5) [fold]	Partition coefficient (LogP octanol/water) [1]	Aqueous solution flux (steady state, across HEM) [4]	Partition coefficient (LogK SC/ 5% PG water) [2, 7]	Hydrolysis in PBS (half life in hours) [5] [h]	Bioconversion in plasma (half life in min) [6]	Decrease of solubility in water relative to unionized DA (Solubility determination; pH 2.5)	LogPO/W [3]
O=C(O)Cc1ccccc1Nc1c(Cl)cccc1Cl [DA, Diclofenac Acid, reference compound]	12600 (≈ 3730 µg/mL)	3.4 (≈ 1.01 µg/mL)	4.57	2.97^a	4.9	–	–	–	–	–	–	–	–	–	–	–	–
Glycerol Diclofenac Ester [GD]	–	–	–	–	–	662	386	69700	551	> 100	3.30	5.54(0.78) nmol·cm^−2·hr^−1	–	–	–	–	–
O=C(Cc1ccccc1Nc1c(Cl)cccc1Cl)OCCCO [PD, 1,3 Propylene Glycol Diclofenac Ester]	–	–	–	–	–	4.8 (≈ 1.7 µg/mL)	2220 (≈ 786 µg/mL)	13600 (≈ 4820 µg/mL)	3.3 (≈ 1.17 µg/mL)	–	4.08	0.84(0.25) nmol·cm^−2·hr^−1	2.58	63.9	2.4 min and 2.41 min	–	–
COC(=O)Cc1ccccc1Nc1c(Cl)cccc1Cl [MD, Methanol Diclofenac Ester]	–	–	–	–	–	1.9 (≈ 0.589 µg/mL)	21000 (≈ 6510 µg/mL)	43000 (≈ 13300 µg/mL)	1.9 (≈ 0.589 µg/mL)	–	5.00	–	3.56	34.6	–	more than 2 folds	–
O=C(c1ccccc1)c1ccc2n1CCC2C(=O)O (stereo not drawn) [ketorolac]	–	–	–	–	–	–	–	–	–	–	–	–	–	–	–	–	around 1
